# Read-outs that look alike come from different tables or passages of the source.
# Assays:
# [1] = tested on: HT-29 colorectal cancer cells; test: MTT anti-proliferative assay against HT-29 cells; type: cell-based, human; settings: for Selectivity Index: SI = IC50Fibroblast/IC50HT-29cells; for Cytotoxic activity category against HT-29: classified by HT-29 IC50
# Protocol: (§1) The toxicity of the thirty-six compounds was determined in vitro by means of the MTT assay. Doxorubicin, a drug widely used to treat different types of cancer, was employed as a positive control, whereas the solvent (DMSO) was used as negative control.
# (§2) Test compounds were dissolved in DMSO to obtain stock solutions that were maintained as small aliquots at −20 °C. At time of drug addition, an aliquot was thawed and diluted to obtain the desired final maximum test concentration of 100 μM, with complete medium. The final percentage of DMSO in the wells was less than 1% (v/v). […] Anti-Proliferative Assay
# (§3) Doxorubicin, a drug widely used to treat different types of cancer, was used as a positive control. After 48 h, the medium was removed and cells were incubated with MTT solution (0.25 mg/mL). Four hours later, the medium was carefully aspired and formazan crystals were dissolved in DMSO (100 μL). The OD550 was measured using a plate reader (Multiskan Go, Thermo Scientific, Waltham, MA, USA). […] The selectivity index (SI), was calculated as a ratio of IC50Fibroblast/IC50HT-29cells.
# (§4) The results are expressed as the mean of triplicate measurements in at least two independent experiments.
# fibroblasts PCS-201-012 = test: MTT cytotoxicity assay against normal dermal fibroblasts; type: cell-based; settings: Fibroblast, value with 95% confidence interval, read-out: PCS-201-012 IC50 μM (95% CI)
# Protocol: as §1, §2, §3, §4
# [2] = Homo sapiens, HT-29, 48 h, MTT, 48 h, 0–100 µM, value with 95% confidence interval, read-out: HT-29 IC50 μM (95% CI)
# [3] = Homo sapiens, HT-29, −logIC50 against HT-29, CoMFA training and test sets, read-out: pIC50 Experimental (converted)
Compound,melting point,"IC50 [1, 2]",Selectivity Index [1],IC50 (fibroblasts PCS-201-012),"IC50 [1, 3]",Cytotoxic activity category against HT-29 [1],"IC50 ([1]; MTT, 48 h, 0–100 µM, value with 95% confidence interval, read-out: HT-29 IC50 μM (95% CI))","IC50 ([1]; Homo sapiens, HT-29, MTT, 48 h, 0–100 µM, value with 95% confidence interval, read-out: HT-29 IC50 μM (95% CI))","IC50 ([1]; Homo sapiens, −logIC50 against HT-29, CoMFA training and test sets, read-out: pIC50 Experimental (converted))"
"C=CC1(C)CC2=C(O1)c1ccccc1C(=O)C2=O (stereo not drawn) [Compound 4t, 2-Ethenyl-2-methyl-2,3-dihydronaphtho[1,2-b]furan-4,5-dione]",150 °C,88.1 µM,0.22,19.7 µM,–,–,–,–,–
"COc1cccc2c1C(=O)c1c(O)c3c(c(O)c1C2=O)C[C@@](O)(C(=O)CO)C[C@@H]3O[C@H]1C[C@H](N)[C@H](O)[C@H](C)O1 [Doxorubicin, reference compound]",–,1.07 µM,–,–,–,–,–,–,–
"CCN(CC)C(=O)c1cc2c(o1)C(=O)c1ccccc1C2=O [Compound 6, N,N-diethyl-4,9-dioxo-4,9-dihydronaphtho[2,3-b]furan-2-carboxamide]",–,2.67 µM,0.56,1.49 µM,2.67 µM,highly active,–,–,–
"CCN(CC)C(=O)c1cc2c(s1)C(=O)c1c(Cl)cccc1C2=O [Compound 8, 8-chloro-N,N-diethyl-4,9-dioxo-4,9-dihydronaphtho[2,3-b]thiophene-2-carboxamide]",–,6.89 µM,0.37,2.56 µM,6.89 µM,–,–,–,–
"O=C1c2ccccc2C(=O)c2[nH]ccc21 [Compound 2a, 1H-Benzo[f]indole-4,9-dione]",281 to 283 °C,> 100 µM,–,–,–,–,–,–,–
"CC12OC1C(=O)c1ccccc1C2=O (stereo not drawn) [Compound 3b, 1a-Methyl-1a,7a-dihydronaphtho[2,3-b]oxirene-2,7-dione]",–,57.3 µM,–,–,–,–,–,–,–
"CCCCc1cc2c(o1)-c1ccccc1C(=O)C2=O [Compound 4i, 2-Butylnaphtho[1,2-b]furan-4,5-dione]",64 °C,9.16 µM,0.42,3.86 µM,9.16 µM,highly active,–,–,–
"C=C(C)C1(C)CC2=C(O1)c1ccccc1C(=O)C2=O (stereo not drawn) [Compound 4p, 2-Methyl-2-(prop-1-en-2-yl)-2,3-dihydronaphtho[1,2-b]furan-4,5-dione]",147 °C,28.1 µM,0.15,4.19 µM,–,–,–,–,–
"O=C(c1cccs1)c1cc2c(s1)C(=O)c1c(O)cccc1C2=O [Compound 7, 8-hydroxy-2-(thiophen-2-ylcarbonyl)naphtho[2,3-b]thiophene-4,9-dione]",–,1.73 µM,–,4.56 µM,1.73 µM,–,–,–,–
"CC1=C(N)C(=O)c2ccccc2C1=O [Compound 3a, 2-Amino-3-methylnaphthalene-1,4-dione]",–,> 100 µM,–,–,–,–,–,–,–
"Cc1cc2c(o1)C(=O)c1ccccc1C2=O [Compound 4d, 2-Methylnaphtho[2,3-b]furan-4,9-dione]",–,17.6 µM,1.05,18.5 µM,17.6 µM,highly active,–,–,–
"O=C1C(=O)c2ccccc2C2=C1CC(c1ccccc1)O2 (stereo not drawn) [Compound 4r, 2-Phenyl-2,3-dihydronaphtho[1,2-b]furan-4,5-dione]",–,14.8 µM,0.56,8.2 µM,–,–,–,–,–
"CCc1[nH]c2c(c1CC)C(=O)c1ccccc1C2=O [Compound 2d, 2,3-Diethyl-1H-benzo[f]indole-4,9-dione]",205 to 209 °C,68.7 µM,0.75,51.5 µM,68.7 µM,–,–,–,–
"CC1(C)OC2=C(C(=O)C(=O)c3ccccc32)C1(C)C [Compound 4s, 2,2,3,3-Tetramethyl-2,3-dihydronaphtho[1,2-b]furan-4,5-dione]",91 °C,18.1 µM,1.10,19.9 µM,18.1 µM,–,–,–,–
"Cc1c(C(C)C)[nH]c2c1C(=O)c1ccccc1C2=O [Compound 2e, 3-Methyl-2-(propan-2-yl)-1H-benzo[f]indole-4,9-dione]",245 to 248 °C,> 100 µM,–,–,–,–,–,–,–
"CCc1cc2c(o1)C(=O)c1ccccc1C2=O [Compound 4e, 2-Ethylnaphtho[2,3-b]furan-4,9-dione]",–,24.9 µM,0.80,20.1 µM,24.9 µM,–,–,–,–
"COC1(C(C)=O)CC2=C(O1)C(=O)c1ccccc1C2=O (stereo not drawn) [Compound 4l, 2-Acetyl-2-methoxy-2,3-dihydronaphtho[2,3-b]furan-4,9-dione]",145 °C,34.9 µM,0.37,12.9 µM,–,–,–,–,–
"Cc1cc2c([nH]1)C(=O)c1ccccc1C2=O [Compound 2b, 2-Methyl-1H-benzo[f]indole-4,9-dione]",302 to 304 °C,> 100 µM,–,–,–,–,–,–,–

Compound,melting point,"IC50 [1, 2]",Selectivity Index [1],IC50 (fibroblasts PCS-201-012),"IC50 [1, 3]",Cytotoxic activity category against HT-29 [1],"IC50 ([1]; MTT, 48 h, 0–100 µM, value with 95% confidence interval, read-out: HT-29 IC50 μM (95% CI))","IC50 ([1]; Homo sapiens, HT-29, MTT, 48 h, 0–100 µM, value with 95% confidence interval, read-out: HT-29 IC50 μM (95% CI))","IC50 ([1]; Homo sapiens, −logIC50 against HT-29, CoMFA training and test sets, read-out: pIC50 Experimental (converted))"
"O=C1C2=C(OC(c3ccccc3)C2)C(=O)c2ccccc21 (stereo not drawn) [Compound 4q, 2-Phenyl-2,3-dihydronaphtho[2,3-b]furan-4,9-dione]",–,30.2 µM,0.30,9.16 µM,–,–,–,–,–
"CCc1cc2c(o1)-c1ccccc1C(=O)C2=O [Compound 4h, 2-Ethylnaphtho[1,2-b]furan-4,5-dione]",136 °C,13.7 µM,0.27,3.68 µM,13.7 µM,highly active,–,–,–
"CC/C=C/C1=C(O)C(=O)c2ccccc2C1=O [Compound 4b, 2-[(1E)-But-1-en-1-yl]-3-hydroxynaphthalene-1,4-dione]",107 °C,> 100 µM,–,–,–,–,–,–,–
"COC(=O)c1nc2c(s1)C(=O)c1ccccc1C2=O [Compound 5c, Methyl 4,9-Dioxo-4,9-dihydronaphtho[2,3-d][1,3]thiazole-2-carboxylate]",–,13.9 µM,0.52,7.26 µM,13.9 µM,–,–,–,–
"C/C=C/C1=C(O)C(=O)c2ccccc2C1=O [Compound 4a, 2-Hydroxy-3-[(1E)-prop-1-en-1-yl]naphthalene-1,4-dione]",–,> 100 µM,–,–,–,–,–,–,–
"CCCCc1cc2c(o1)C(=O)c1ccccc1C2=O [Compound 4f, 2-Butylnaphtho[2,3-b]furan-4,9-dione]",–,23.7 to 88.1 µM,0.46,10 µM,21.7 µM,–,21.7 µM,–,–
"CCc1cc2c([nH]1)C(=O)c1ccccc1C2=O [Compound 2c, 2-Ethyl-1H-benzo[f]indole-4,9-dione]",200 to 207 °C,40.2 µM,–,79.4 µM,40.2 µM,moderately active (moderately active (20 µM < IC50 ≤ 100 µM)),–,–,–
"C=C(C)C1(C)CC2=C(O1)C(=O)c1ccccc1C2=O (stereo not drawn) [Compound 4o, 2-Methyl-2-(prop-1-en-2-yl)-2,3-dihydronaphtho[2,3-b]furan-4,9-dione]",135 °C,25.8 µM,–,47.9 µM,–,–,–,–,–
"CCCc1[nH]c2c(c1C)C(=O)c1ccccc1C2=O [Compound 2f, 3-Methyl-2-propyl-1H-benzo[f]indole-4,9-dione]",266 to 270 °C,> 100 µM,–,–,–,–,–,–,–
"CCc1noc(-c2cc3c(s2)C(=O)c2ccccc2C3=O)n1 [Compound 9, 2-(3-ethyl-1,2,4-oxadiazol-5-yl)naphtho[2,3-b]thiophene-4,9-dione]",–,3.07 µM,0.34,1.03 µM,3.07 µM,–,–,–,–
"O=C1c2ccccc2C(=O)C2OC12 (stereo not drawn) [Compound 1a, 1a,7a-Dihydronaphtho[2,3-b]oxirene-2,7-dione]",–,10.8 µM,–,–,10.8 µM,–,–,–,–
"CC1=C(Cl)C(=O)c2ccccc2C1=O [Compound 3c, 2-Chloro-3-methylnaphthalene-1,4-dione]",158 °C,11 µM,0.90,9.92 µM,11 µM,–,–,–,–
"NC1=CC(=O)c2ccccc2C1=O [Compound 2, 2-Aminonaphthalene-1,4-dione]",–,–,0.30,7.34 µM,–,–,–,24.6 µM,24.6 µM
"COC(=O)C1C2=C(OC1c1ccccc1)C(=O)c1ccccc1C2=O (stereo not drawn) [Compound 4n, Methyl 4,9-Dioxo-2-phenyl-2,3,4,9-tetrahydronaphtho[2,3-b]furan-3-carboxylate]",167 °C,> 100 µM,–,–,–,–,–,–,–
"CC(=O)c1cc2c(o1)C(=O)c1ccccc1C2=O [Compound 4m, 2-Acetylnaphtho[2,3-b]furan-4,9-dione]",–,4.61 µM,0.76,3.5 µM,–,highly active,–,–,–
"CCCC/C=C/C1=C(O)C(=O)c2ccccc2C1=O [Compound 4c, 2-[(1E)-Hex-1-en-1-yl]-3-hydroxynaphthalene-1,4-dione]",85 °C,> 100 µM,–,–,–,–,–,–,–
"O=C1c2ccccc2C(=O)c2oc(-c3ccccc3)cc21 [Compound 4k, 2-Phenylnaphtho[2,3-b]furan-4,9-dione]",220 °C,> 10 µM,–,–,–,–,–,–,–
